What was measured:
Type in all cases: in vivo, human
[1] = test system: patients having Fragile X Syndrome (FXS); experiment: Clinical Global Impression (CGI) scale in clinical study, by FMR1 methylation status / mRNA expression; details: for CGI-global improvement, treatment difference / CGI-efficacy index, treatment difference: versus placebo, adjusted for baseline; for CGI-global improvement, treatment difference: decrease = improvement; for CGI-efficacy index, treatment difference: increase = improvement
From the text: (§1) As used herein, “an mGluR5 responder” is an individual having FXS who is likely following therapeutic treatment with an mGluR5 antagonist to show improved behavioral symptoms as assessed using the Aberrant Behavior Checklist—Community Edition (ABC-C) measure of behavior (Bihm et al., Am. J. Ment Retard 96:209-211). The ABC-C measurement looks at various behaviors including stereotypic behavior, hyperactivity, inappropriate speech, and restricted interests. […] The behavioral symptoms may also be assessed by other methods, such as Clinical Global Impression (CGI) scale, Social Responsiveness Scale (SRS), or Repetitive Behavior Scale-Revised (RBS-R). Individuals showing an improvement according to these tests will also be determined to be an mGluR5 responder.
(§2) The present examples were performed as a follow up to a clinical trial which investigated whether the mGluR5 antagonist (−)-(3aR,4S,7aR)-4-Hydroxy-4-m-tolylethynyl-octahydro-indole-1-carboxylic acid methyl ester could provide beneficial treatment to a subject having FXS. The present study was set up to identify if a subset of patients exist that respond to (−)-(3aR,4S,7aR)-4-Hydroxy-4-m-tolylethynyl-octahydro-indole-1-carboxylic acid methyl ester treatment. In an attempt to identify such a subset of patients who respond to (−)-(3aR,4S,7aR)-4-Hydroxy-4-m-tolylethynyl-octahydro-indole-1-carboxylic acid methyl ester treatment, a study was conducted to investigate the relationship between FMR1 methylation/mRNA expression and (−)-(3aR,4S,7aR)-4-Hydroxy-4-m-tolylethynyl-octahydro-indole-1-carboxylic acid methyl ester efficacy in the study.
(§3) Among the 30 patients who completed the clinical study, 26 consented for pharmacogenetic/pharmacogenomic assessments. Genomic DNA was extracted from whole blood according to the instructions from Gentra (Minneapolis, Minn.). Total RNA was extracted from whole blood according to the instructions from Qiagen (Valencia, Calif.). A total of 26 DNA and 24 RNA samples were successfully extracted and analyzed. In addition, normal control DNAs were purchased from Coriell Institute (Camden, N.J.).
(§4) Genomic DNA was treated with bisulfite (Qiagen, Valencia, Calif.). MSP was performed using the CpG WIZ Fragile X Amplification Kit from Chemicon (Temecula, Calif.) according to manufacture's instruction. A total of 26 patients and 4 normal controls were analyzed.
(§5) FMR1 mRNA expression was measured by Taqman real-time PCR. The primers and probe were designed by Applied Biosystems (Foster City, Calif.; fragile X mental retardation 1 Hs 00924544_ml, Glyceraldehyde-3-phosphate dehydrogenase Hs 99999905_ml; ubiquitin C Hs 00824723_ml)
(§6) The expression levels of the control genes, GAPDH and UBC, were used to adjust for inter-sample variability. The data is presented as normalized Ct (cycle threshold). A Ct value≧36 is considered to be the background of the assay. A total of 24 patients and 9 normal controls were analyzed.
(§7) Genomic DNA was treated with […] (Qiagen, Valencia, Calif.). The following primers were used to amplify the FMR1 promoter with 22 CpG sites: 5′-[…]-3′ (SEQ ID NO:10); and 5′-[…]-3′ (SEQ ID NO:11). The 196-bp FMR1 promoter was cloned using the TA cloning kit from Invitrogen (Carlsbad, Calif.) and 7-13 clones per patient were sequenced using ABI3730XL (Foster City, Calif.). More details can be found in the BMD report. A total of 26 patients and 4 normal controls were analyzed.

[2] = test system: patients having Fragile X Syndrome (FXS); experiment: as above; details: day 19; patients fully methylated (probe-based methylation assay, 12 patients analysed) and/or not expressing FMR1 mRNA; p<0.001
[3] = test system: patients having Fragile X Syndrome (FXS); experiment: Aberrant Behavior Checklist-Community Edition (ABC-C) scores in clinical study, by FMR1 methylation status / mRNA expression; details: for ABC-C improvement in response over placebo / ABC-C Subscale I (Irritability), treatment difference / ABC-C Subscale II (Lethargy), treatment difference / ABC-C Subscale III (Stereotype), treatment difference / ABC-C Subscale IV (Hyperactivity), treatment difference / ABC-C Subscale V (Inappropriate Speech), treatment difference / ABC-C Total of subscales, treatment difference: day 19; for ABC-C Subscale I (Irritability), treatment difference / ABC-C Subscale II (Lethargy), treatment difference / ABC-C Subscale III (Stereotype), treatment difference / ABC-C Subscale IV (Hyperactivity), treatment difference / ABC-C Subscale V (Inappropriate Speech), treatment difference / ABC-C Total of subscales, treatment difference: versus placebo, adjusted for baseline
From the text: as §1, §2, §3, §4, §5, §6, §7

[4] = test system: patients having Fragile X Syndrome (FXS); experiment: Clinical response versus placebo in clinical study (measure not given)
From the text: As used herein, “an mGluR5 responder” is an individual having FXS who is likely following therapeutic treatment with an mGluR5 antagonist to show improved behavioral symptoms as assessed using the Aberrant Behavior Checklist—Community Edition (ABC-C) measure of behavior (Bihm et al., Am. J. Ment Retard 96:209-211). The ABC-C measurement looks at various behaviors including stereotypic behavior, hyperactivity, inappropriate speech, and restricted interests. […] The behavioral symptoms may also be assessed by other methods, such as Clinical Global Impression (CGI) scale, Social Responsiveness Scale (SRS), or Repetitive Behavior Scale-Revised (RBS-R). Individuals showing an improvement according to these tests will also be determined to be an mGluR5 responder. […]
Among the 30 patients who completed the clinical study, 26 consented for pharmacogenetic/pharmacogenomic assessments. […] A total of 26 DNA and 24 RNA samples were successfully extracted and analyzed. […]
Genomic DNA was treated with bisulfite (Qiagen, Valencia, Calif.). […] A total of 26 patients and 4 normal controls were analyzed.
FMR1 mRNA expression was measured by Taqman real-time PCR. […]
The expression levels of the control genes, GAPDH and UBC, were used to adjust for inter-sample variability. […] A total of 24 patients and 9 normal controls were analyzed. […]

[5] = fully methylated patients after reclassification (MSP, bisulfite-sequencing, additional MSP), p<0.001
[6] = day 19, patients who did not express FMR1 mRNA (n = 7)
[7] = day 19, patients who expressed FMR1 mRNA (n = 17)
[8] = day 19, patients with full methylation (n = 8)
[9] = day 19, patients with partial methylation (n = 18)
[10] = day 19, reclassified: patients with full methylation (by MSP and sequencing) (n = 7)
[11] = day 19, reclassified: patients with partial methylation (by MSP and sequencing) (n = 18)
[12] = patients who did not express FMR1 mRNA (n = 7)
[13] = patients who expressed FMR1 mRNA (n = 17)
[14] = patients with full methylation (n = 8)
[15] = patients with partial methylation (n = 18)
[16] = reclassified: patients with full methylation (determined by MSP and sequencing) (n = 7)
[17] = reclassified: patients with partial methylation (determined by MSP and sequencing) (n = 18)

COC(=O)N1CC[C@@H]2[C@H]1CCC[C@@]2(O)C#Cc1cccc(C)c1 [(−)-(3aR,4S,7aR)-4-Hydroxy-4-m-tolylethynyl-octahydro-indole-1-carboxylic acid methyl ester]
CGI-efficacy index improvement in response over placebo ([1]; day 19, patients fully methylated (initial MSP) or not expressing FMR1 mRNA, p<0.001): significantly greater improvement | CGI-efficacy index response versus placebo [1, 5]: significantly higher than placebo | CGI-global improvement, treatment difference [1, 6]: −2.02 | CGI-efficacy index, treatment difference [1, 6]: 1.99 | CGI-global improvement, treatment difference [1, 7]: 0.56 | CGI-efficacy index, treatment difference [1, 7]: −0.47 | CGI-global improvement, treatment difference [1, 8]: −1.94 | CGI-efficacy index, treatment difference [1, 8]: 1.86 | CGI-global improvement, treatment difference [1, 9]: 0.67 | CGI-efficacy index, treatment difference [1, 9]: −0.58 | CGI-global improvement, treatment difference [1, 10]: −1.78 | CGI-efficacy index, treatment difference [1, 10]: 1.76 | CGI-global improvement, treatment difference [1, 11]: 0.58 | CGI-efficacy index, treatment difference [1, 11]: −0.43 | CGI-efficacy index improvement in response over placebo [2]: significantly greater improvement | ABC-C improvement in response over placebo ([3]; patients fully methylated (initial MSP) or not expressing FMR1 mRNA, p<0.001): significantly greater improvement | ABC-C improvement in response over placebo ([3]; patients fully methylated (probe-based methylation assay, 12 patients analysed) and/or not expressing FMR1 mRNA, p<0.001): significantly greater improvement | ABC-C response versus placebo [3, 5]: significantly higher than placebo | ABC-C Subscale I (Irritability), treatment difference [3, 12]: −3.69 | ABC-C Subscale II (Lethargy), treatment difference [3, 12]: −6.71 | ABC-C Subscale III (Stereotype), treatment difference [3, 12]: −3.03 | ABC-C Subscale IV (Hyperactivity), treatment difference [3, 12]: −9.12 | ABC-C Subscale V (Inappropriate Speech), treatment difference [3, 12]: −4.66 | ABC-C Total of subscales, treatment difference [3, 12]: −32.19 | ABC-C Subscale I (Irritability), treatment difference [3, 13]: −0.81 | ABC-C Subscale II (Lethargy), treatment difference [3, 13]: 1.93 | ABC-C Subscale III (Stereotype), treatment difference [3, 13]: 0.32 | ABC-C Subscale IV (Hyperactivity), treatment difference [3, 13]: −0.16 | ABC-C Subscale V (Inappropriate Speech), treatment difference [3, 13]: 1.09 | ABC-C Total of subscales, treatment difference [3, 13]: 2.23 | ABC-C Subscale I (Irritability), treatment difference [3, 14]: −4.33 | ABC-C Subscale II (Lethargy), treatment difference [3, 14]: −6.55 | ABC-C Subscale III (Stereotype), treatment difference [3, 14]: −3.96 | ABC-C Subscale IV (Hyperactivity), treatment difference [3, 14]: −8.77 | ABC-C Subscale V (Inappropriate Speech), treatment difference [3, 14]: −4.48 | ABC-C Total of subscales, treatment difference [3, 14]: −30.85 | ABC-C Subscale I (Irritability), treatment difference [3, 15]: −0.67 | ABC-C Subscale II (Lethargy), treatment difference [3, 15]: 3.76 | ABC-C Subscale III (Stereotype), treatment difference [3, 15]: 0.89 | ABC-C Subscale IV (Hyperactivity), treatment difference [3, 15]: 0.42 | ABC-C Subscale V (Inappropriate Speech), treatment difference [3, 15]: 1.09 | ABC-C Total of subscales, treatment difference [3, 15]: 5.66 | ABC-C Subscale I (Irritability), treatment difference [3, 16]: −2.66 | ABC-C Subscale II (Lethargy), treatment difference [3, 16]: −5.53 | ABC-C Subscale III (Stereotype), treatment difference [3, 16]: −5.06 | ABC-C Subscale IV (Hyperactivity), treatment difference [3, 16]: −8.55 | ABC-C Subscale V (Inappropriate Speech), treatment difference [3, 16]: −4.31 | ABC-C Total of subscales, treatment difference [3, 16]: −27.82 | ABC-C Subscale I (Irritability), treatment difference [3, 17]: −1.15 | ABC-C Subscale II (Lethargy), treatment difference [3, 17]: 2.66 | ABC-C Subscale III (Stereotype), treatment difference [3, 17]: 0.78 | ABC-C Subscale IV (Hyperactivity), treatment difference [3, 17]: −0.21 | ABC-C Subscale V (Inappropriate Speech), treatment difference [3, 17]: 0.81 | ABC-C Total of subscales, treatment difference [3, 17]: 3.10 | Difference between compound and placebo ([4]; patients partially methylated (initial MSP) or expressing FMR1 mRNA): no significant differences | Difference between compound and placebo ([4]; patients partially methylated (probe-based methylation assay) or expressing FMR1 mRNA): no significant differences
